Measured values taken from patent publication US7317100B2, “Epothilone derivatives” (Novartis AG, priority 2002, dated 2008).

Key:
[1] = molecular target: T1, porcine microtubule protein (tubulin plus microtubule-associated proteins) (Sus scrofa, UniProt P02554); experiment: Test-compound-induced polymerisation of porcine microtubule protein (inhibition of microtubule depolymerisation); assay type: biochemical, pig; conditions: test compound 4 uM, porcine microtubule protein (Batch #9) 0.8 mg/ml; 25 μM epothilone B = 100% polymerization, vehicle = 0%
T1 construct: extracted from pigs' brain by two cycles of temperature-dependent depolymerisation/polymerisation; from tissue; host or cells: pig brain
Description: Stock solutions of the test compounds (10 mM) are prepared in DMSO and stored at −20° C. […] The degree of test-compound-induced polymerisation of porcine microtubule protein is determined basically as already known (see Lin et al., Cancer Chem. Pharm. 1996; 38:136-140). To summarise, a working aliquot of porcine microtubule protein is rapidly thawed and then diluted to 2× final desired concentration in ice-cold 2× MEM buffer (200 ml MES, 2 mM EGTA, 2 mM MgCl2, pH 6.7) [MES=2-morpholinoethanesulphonic acid, EGTA=ethylene glycol-bis-2(2-aminoethyl)-tetraacetic acid]. Drug or vehicle (DMSO, final concentration 5%) is diluted in water at room temperature to 2× the final desired concentration in a 0.5 ml eppendorf tube, and then put on ice. Following addition of an equal volume (50 μl) of microtubule protein (2× final desired concentration in 2× MEM buffer), the polymerization reaction is started by transferring the incubation mixtures to a room-temperature water bath for 5 min. The reaction mixtures are then placed in an Eppendorf microcentrifuge (model 5415 C) and incubated for an additional 15 min at room temperature. The samples are then centrifuged for 15 min at 14,000 rpm at room temperature. As an indirect measure for microtubule protein polymerization, the protein concentration of the supernatant (containing the remainder of non-polymerized, soluble microtubule protein) is determined by the Lowry method (DC Assay Kit, Bio-Rad Laboratories, Hercules, Calif.) and the optical density of the colour reaction is measured at 750 nm with a SpectraMax 340 photometer (Molecular Devices, Sunnydale, Calif.). […] Vehicle-treated samples serve as negative control (0% polymerization).
Final assay concentrations of test compound and porcine microtubule protein (Batch #9) were 4 uM and 0.8 mg/ml, respectively.

[2] = system: KB-8511 (multidrug-resistant, P-gp170 overexpressing) epidermoid carcinoma cells; experiment: Cell growth inhibition, multidrug-resistant KB-8511 epidermoid carcinoma cells (methylene blue staining); assay type: cell-based, human; conditions: KB-8511 cells (P-gp170 overexpressing), 4 days incubation with compound
Description: (§1) Stock solutions of the test compounds (10 mM) are prepared in DMSO and stored at −20° C. Human KB-31 and (multidrug-resistant, P-gp170 overexpressing) KB-8511 epidermoid carcinoma cells originate from Dr. M. Baker, Roswell Park Memorial institute (Buffalo, N.Y., USA) (description: see also Akiyama et al., Somat. Cell. Mol. Genetics 11, 117-126 (1985) and Fojo A., et al., Cancer Res. 45, 3002-3007 (1985) -KB-31 and KB-8511 are both derivatives of the KB cell line (ATCC). KB 31 cells may be cultivated in monolayers using RPMI-1640 medium (Amimed, BioConcept, Allschwil, Switzerland) with 10% foetal calf serum (Amimed, BioConcept, Allschwil, Switzerland), L-glutamine (Amimed, BioConcept, Allschwil, Switzerland), penicillin (50 units/ml) and streptomycin (50 μg/ml (Amimed, BioConcept, Allschwil, Switzerland). KB-8511 is a variant derived from the KB-31 cell line, which was obtained using colchichine treatment cycles, and has an approximately 40 times relative resistance to colchichine compared with KB-31 cells (Akiyama et al., Somat. Cell. Mol. Genetics 11, 117-126 (1985) and Fojo A., et al., Cancer Res. 45, 3002-3007 (1985)). The cells are incubated at 37° C. in an incubator with 5% v/v CO2 and at 80% relative humidity with RPMI-1640 medium complemented as described above. The cells are seeded in a quantity of 1.5×10^3 cells/well in 96-well microtitre plates, and incubated over night. Serial dilutions of the test compounds in culture medium are added on day 1. The plates are then incubated for a further 4 days, after which the cells are fixed with 3.3% v/v glutaraldehyde, washed with water and dyed with 0.05% w/v methylene blue. After washing, the dye is eluted with 3% HCl and the optical density measured at 665 nm with a SpectraMax 340 (Molecular Devices, Sunnyvale, Calif.). IC50 values are determined by adaptation of mathematical curves, using the SoftProprogramme (Version 2.0 or later; Molecular Devices, Sunnyvale, Calif.) and using the formula [(OD treated)−(OD start)]/[(OD control)−(OD start)]×100. […]

[3] = system: KB-31 epidermoid carcinoma cells; experiment: Cell growth inhibition, KB-31 epidermoid carcinoma cells (methylene blue staining); assay type: cell-based, human; conditions: KB-31 cells, 4 days incubation with compound
Description: as §1

T1 sequence (P02554 whole entry): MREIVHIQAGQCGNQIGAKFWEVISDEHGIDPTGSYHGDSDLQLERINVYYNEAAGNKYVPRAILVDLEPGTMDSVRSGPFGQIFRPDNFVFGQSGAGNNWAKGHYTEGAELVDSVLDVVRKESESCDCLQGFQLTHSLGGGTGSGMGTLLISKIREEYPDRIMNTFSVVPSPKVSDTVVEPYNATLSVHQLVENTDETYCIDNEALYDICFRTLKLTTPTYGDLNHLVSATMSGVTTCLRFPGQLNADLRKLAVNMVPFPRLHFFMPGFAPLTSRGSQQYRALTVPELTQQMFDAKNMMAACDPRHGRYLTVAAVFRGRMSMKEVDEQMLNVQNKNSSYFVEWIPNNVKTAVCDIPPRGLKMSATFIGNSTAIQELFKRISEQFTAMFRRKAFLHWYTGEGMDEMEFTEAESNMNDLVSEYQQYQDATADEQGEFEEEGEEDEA
T1 sequence (P02550 whole entry partner): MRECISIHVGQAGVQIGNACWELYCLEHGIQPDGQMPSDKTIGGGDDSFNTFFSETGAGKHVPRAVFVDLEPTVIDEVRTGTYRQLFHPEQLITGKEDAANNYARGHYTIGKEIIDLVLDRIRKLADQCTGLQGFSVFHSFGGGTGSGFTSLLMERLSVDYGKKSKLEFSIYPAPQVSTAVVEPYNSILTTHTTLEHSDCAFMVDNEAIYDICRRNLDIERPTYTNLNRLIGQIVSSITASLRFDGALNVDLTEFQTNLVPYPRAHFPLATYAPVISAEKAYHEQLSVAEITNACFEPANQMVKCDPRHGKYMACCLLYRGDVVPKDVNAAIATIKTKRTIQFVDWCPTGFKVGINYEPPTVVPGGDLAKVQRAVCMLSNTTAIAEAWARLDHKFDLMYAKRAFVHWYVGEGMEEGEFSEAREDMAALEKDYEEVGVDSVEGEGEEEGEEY

Structure (SMILES)	Tubulin Polymerisation (% of control) [1]	IC50 [2] [nM]	IC50 [3] [nM]	IC50 ([2]; Homo sapiens, 96 h) [nM]	IC50 ([3]; Homo sapiens, KB 3-1, 96 h) [nM]
C/C(=C\c1csc(C)n1)[C@@H]1C[C@@H]2O[C@@H]2CCC[C@H](C)[C@H](O)[C@@H](C)C(=O)C(C)(C)[C@@H](O)CC(=O)O1 [Epothilone A]	76.5 % of control				
C/C(=C\c1csc(C)n1)[C@@H]1C[C@@H]2O[C@]2(C)CCC[C@H](C)[C@H](O)[C@@H](C)C(=O)C(C)(C)[C@@H](O)CC(=O)O1 [Epothilone B]	93.3 % of control	0.2 ± 0.04	0.28 ± 0.04		
C/C(=C\c1csc(C)n1)C1CC2OC2(C)CCCC(C)C(O)C(C)C(=O)C(C)C(O)CC(=O)O1 (stereo not drawn) [Example 1, C4-Desmethyl-Epothilone B]	93.3 % of control	0.8 ± 0.16	0.49 ± 0.05		
CC(=O)O[C@H]1C(=O)[C@@]2(C)[C@H]([C@H](OC(=O)c3ccccc3)[C@]3(O)C[C@H](OC(=O)[C@H](O)[C@@H](NC(=O)c4ccccc4)c4ccccc4)C(C)=C1C3(C)C)[C@]1(OC(C)=O)CO[C@@H]1C[C@@H]2O [Paclitaxel]				739 ± 86	3.76 ± 0.52
